Results as given in patent publication US5856336A, “Quinoline type mevalonolactones” (Nissan Chemical Industries Ltd., priority 1987, dated 1999).
Where a name gives a salt, the structure may show the parent alone.

Tested on: cholesterol biosynthesis from acetate (liver microsome and sup fraction)
Assay: Test A: Inhibition of cholesterol biosynthesis from acetate in vitro
Format: biochemical, male Wistar rat
Conditions: for Relative activities by Test A: relative to CS-514 being evaluated to be 1
Protocol: Test A: Inhibition of cholesterol biosynthesis from acetate in vitro
Enzyme solution was prepared from liver of male Wistar rat billialy cannulated and discharged bile for over 24 hours. Liver was cut out at mid-dark and microsome and supernatant fraction which was precipitable with 40-80% of saturation of ammonium sulfate (sup fraction) were prepared from liver homogenate according to the modified method of Knauss et. al.; Kuroda, M., et. al., Biochim. Biophys. Acta, 489, 119 (1977). For assay of cholesterol biosynthesis, microsome (0.1 mg protein) and sup fraction (1.0 mg protein) were incubated for 2 hours at 37° C. in 200 μl of the reaction mixture containing ATP; 1 mM, Glutathione; 6 mM, Glucose-1-phosphate; 10 mM, NAD; 0.25 mM, NADP; 0.25 mM, CoA; 0.04 mM and 0.2 mM [2-^14 C]sodium acetate (0.2 μCi) with 4 μl of test compound solution dissolved in water or dimethyl sulfoxide. To stop reaction and saponify, 1 ml of 15% EtOH-KOH was added to the reactions and heated at 75° C. for 1 hour. […] Inhibitory activity of compounds was indicated with IC50.

| SMILES | IC50 (Test A, rat liver microsome + sup fraction, [2-14C]sodium acetate, 2 hours at 37° C., read-out: I50 (inhibitory activities by Test A)) | Relative activities by Test A |
| --- | --- | --- |
| CC(C)c1nc2ccccc2c(-c2ccc(F)cc2)c1/C=C/C(O)CC(O)CC(=O)O (stereo not drawn) [I-51, Sodium salt of (E)-3,5-dihydroxy-7-[4'-(4"-fluorophenyl)-2'-(1"-methylethyl)-quinolin-3 '-yl]-hept-6-enoic acid] | 10 nM |  |
| CCOC(=O)CC(O)CC(O)/C=C/c1c(CC)nc2ccccc2c1-c1ccc(F)cc1 (stereo not drawn) [I-117] |  | 0.37 |
| CC(C)c1nc2c(Cl)cc(Cl)cc2c(-c2ccc(F)cc2)c1/C=C/C(O)CC(O)CC(=O)O (stereo not drawn) [I-522] |  | 0.76 |
